The target in experiment [1] is T1, Mitogen-activated protein kinase kinase kinase 13 (Homo sapiens) (UniProt O43283).
T1 sequence (whole entry): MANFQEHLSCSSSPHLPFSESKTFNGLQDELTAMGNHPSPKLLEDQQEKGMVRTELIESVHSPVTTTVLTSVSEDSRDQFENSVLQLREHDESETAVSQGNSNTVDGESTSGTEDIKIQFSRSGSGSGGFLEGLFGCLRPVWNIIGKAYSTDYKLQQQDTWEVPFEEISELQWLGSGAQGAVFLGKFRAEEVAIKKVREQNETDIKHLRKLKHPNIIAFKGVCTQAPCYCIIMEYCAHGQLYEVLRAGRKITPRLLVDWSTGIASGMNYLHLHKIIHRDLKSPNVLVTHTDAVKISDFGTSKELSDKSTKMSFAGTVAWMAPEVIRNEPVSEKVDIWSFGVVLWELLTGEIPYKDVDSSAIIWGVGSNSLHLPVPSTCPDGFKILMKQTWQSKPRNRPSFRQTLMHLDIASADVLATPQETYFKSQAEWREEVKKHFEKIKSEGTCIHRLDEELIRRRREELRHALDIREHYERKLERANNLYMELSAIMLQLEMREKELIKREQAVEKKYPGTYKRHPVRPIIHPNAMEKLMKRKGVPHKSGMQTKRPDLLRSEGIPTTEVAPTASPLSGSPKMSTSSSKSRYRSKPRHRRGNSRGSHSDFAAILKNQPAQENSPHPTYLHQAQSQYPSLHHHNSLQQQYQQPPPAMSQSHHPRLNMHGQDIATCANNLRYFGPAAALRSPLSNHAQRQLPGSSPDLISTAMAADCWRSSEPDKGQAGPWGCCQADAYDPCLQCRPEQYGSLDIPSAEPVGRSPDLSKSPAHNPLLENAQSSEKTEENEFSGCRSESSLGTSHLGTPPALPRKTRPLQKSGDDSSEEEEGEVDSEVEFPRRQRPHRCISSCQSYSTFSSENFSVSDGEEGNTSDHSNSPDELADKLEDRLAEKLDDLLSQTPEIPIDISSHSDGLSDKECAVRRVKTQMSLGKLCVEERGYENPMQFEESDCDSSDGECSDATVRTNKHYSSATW
The experiment is described as follows: Selectivity interaction (Ambit KINOMEscan and KiNATiv profiling in Jurkat cells) EUB0000090b MAP3K13. The class given is cell-based. The note with it: at 1 µM.

Experiment [2] deals with cGMP-specific 3',5'-cyclic phosphodiesterase (Homo sapiens) (UniProt O76074). The experiment is described as follows: Selectivity interaction (Eurofins safety panel) EUB0001564a PDE5A. The note with it: at 10 µM.
Experiment [3] addresses Mitogen-activated protein kinase kinase kinase kinase 4 (Homo sapiens, UniProt O95819). The experiment is described as follows: Selectivity interaction (KinomeScan (DiscoverX)) EUB0000695a MAP4K4. The following applies: at 100 nM.
For experiment [4], the target named is T2, Dual specificity mitogen-activated protein kinase kinase 3 (Homo sapiens) (UniProt P46734).
T2 sequence (whole entry): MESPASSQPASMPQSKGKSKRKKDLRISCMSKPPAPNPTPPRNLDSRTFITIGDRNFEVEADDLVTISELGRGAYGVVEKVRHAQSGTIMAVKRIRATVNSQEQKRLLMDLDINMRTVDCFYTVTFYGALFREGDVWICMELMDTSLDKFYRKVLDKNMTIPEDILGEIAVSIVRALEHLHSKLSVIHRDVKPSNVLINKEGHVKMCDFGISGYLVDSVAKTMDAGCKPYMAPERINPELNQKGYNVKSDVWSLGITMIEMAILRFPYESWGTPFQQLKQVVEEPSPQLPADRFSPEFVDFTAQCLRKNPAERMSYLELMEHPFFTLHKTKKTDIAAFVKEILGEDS
Kind of experiment: Selectivity interaction (KinomeScan (DiscoverX)) EUB0000045b MAP2K3.

For experiment [5], the target named is T3, Peripheral plasma membrane protein CASK (Homo sapiens) (UniProt O14936).
T3 sequence (whole entry): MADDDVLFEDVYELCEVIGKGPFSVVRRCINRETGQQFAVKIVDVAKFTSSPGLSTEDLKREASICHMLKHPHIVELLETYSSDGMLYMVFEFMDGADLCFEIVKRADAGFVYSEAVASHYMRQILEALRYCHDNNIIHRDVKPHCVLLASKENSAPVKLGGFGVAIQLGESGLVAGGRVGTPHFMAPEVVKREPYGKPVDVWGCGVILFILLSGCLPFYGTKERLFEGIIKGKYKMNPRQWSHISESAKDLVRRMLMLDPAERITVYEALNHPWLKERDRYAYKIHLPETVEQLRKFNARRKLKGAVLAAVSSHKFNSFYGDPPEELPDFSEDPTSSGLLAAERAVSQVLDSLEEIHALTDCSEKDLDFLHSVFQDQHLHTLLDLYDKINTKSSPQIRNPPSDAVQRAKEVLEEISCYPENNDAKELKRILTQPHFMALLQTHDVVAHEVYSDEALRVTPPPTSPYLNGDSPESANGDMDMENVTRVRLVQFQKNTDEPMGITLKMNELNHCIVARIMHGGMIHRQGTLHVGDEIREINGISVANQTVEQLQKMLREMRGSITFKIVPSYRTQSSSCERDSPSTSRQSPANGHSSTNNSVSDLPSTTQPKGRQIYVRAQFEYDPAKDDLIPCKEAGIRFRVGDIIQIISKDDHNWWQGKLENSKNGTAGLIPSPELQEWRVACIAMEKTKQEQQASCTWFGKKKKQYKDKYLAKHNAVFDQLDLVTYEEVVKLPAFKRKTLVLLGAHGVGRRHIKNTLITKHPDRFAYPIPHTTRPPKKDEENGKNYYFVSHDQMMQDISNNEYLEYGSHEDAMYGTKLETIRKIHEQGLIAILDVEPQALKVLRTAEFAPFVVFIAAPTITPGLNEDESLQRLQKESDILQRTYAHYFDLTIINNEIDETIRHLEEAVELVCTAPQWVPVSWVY
Kind of experiment: Selectivity interaction (KinomeScan (DiscoverX)) EUB0000666a CASK. The note with it: at 10 µM.

For experiment [6], the target named is Histone-lysine N-methyltransferase SETD2 (Homo sapiens) (UniProt Q9BYW2). The following applies: at 1 µM.
In experiment [7] the target is Serine/threonine-protein kinase PAK 4 (Homo sapiens, UniProt O96013). Kind of experiment: Selectivity interaction (SelectScreen profiling (Invitrogen)) EUB0000607a PAK4. The following applies: at 2 µM.
Sequence of Serine/threonine-protein kinase PAK 4 (O96013 whole entry, looked up): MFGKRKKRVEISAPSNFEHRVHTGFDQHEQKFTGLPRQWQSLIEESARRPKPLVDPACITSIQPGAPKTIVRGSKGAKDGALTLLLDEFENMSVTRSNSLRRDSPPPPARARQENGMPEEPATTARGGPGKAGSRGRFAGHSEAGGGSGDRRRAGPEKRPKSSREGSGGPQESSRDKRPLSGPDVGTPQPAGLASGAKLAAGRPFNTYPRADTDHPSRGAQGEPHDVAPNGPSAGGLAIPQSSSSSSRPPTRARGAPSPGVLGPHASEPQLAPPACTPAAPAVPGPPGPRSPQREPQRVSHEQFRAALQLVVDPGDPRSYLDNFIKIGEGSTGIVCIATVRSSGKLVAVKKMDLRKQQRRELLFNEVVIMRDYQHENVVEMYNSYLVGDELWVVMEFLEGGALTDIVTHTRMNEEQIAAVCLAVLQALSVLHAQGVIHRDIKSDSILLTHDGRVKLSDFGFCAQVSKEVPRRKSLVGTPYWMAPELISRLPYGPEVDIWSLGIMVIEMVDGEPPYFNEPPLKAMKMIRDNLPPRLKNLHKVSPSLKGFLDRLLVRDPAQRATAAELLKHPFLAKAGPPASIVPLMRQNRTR
The target in experiment [8] is Receptor-interacting serine/threonine-protein kinase 2 (Homo sapiens, UniProt O43353). Kind of experiment: Selectivity interaction (Kinase panel (Invitrogen)) EUB0000639a RIPK2. The note with it: at 200 nM.
Sequence of Receptor-interacting serine/threonine-protein kinase 2 (O43353 whole entry): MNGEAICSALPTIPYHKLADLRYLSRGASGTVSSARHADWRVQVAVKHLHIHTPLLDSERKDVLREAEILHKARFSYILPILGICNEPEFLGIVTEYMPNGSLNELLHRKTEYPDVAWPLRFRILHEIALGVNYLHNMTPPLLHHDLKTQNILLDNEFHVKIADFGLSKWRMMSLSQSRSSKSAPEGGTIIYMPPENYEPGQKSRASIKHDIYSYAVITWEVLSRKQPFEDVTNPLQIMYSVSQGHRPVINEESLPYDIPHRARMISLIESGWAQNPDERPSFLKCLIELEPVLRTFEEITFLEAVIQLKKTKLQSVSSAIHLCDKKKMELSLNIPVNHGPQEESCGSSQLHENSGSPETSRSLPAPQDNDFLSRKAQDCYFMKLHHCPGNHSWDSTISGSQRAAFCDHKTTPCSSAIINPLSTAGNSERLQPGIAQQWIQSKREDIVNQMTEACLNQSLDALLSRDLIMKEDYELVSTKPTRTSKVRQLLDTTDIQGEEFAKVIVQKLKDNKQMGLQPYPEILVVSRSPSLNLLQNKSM
Experiment [9] addresses Insulin-like growth factor 1 receptor (Homo sapiens, UniProt P08069). The experiment is described as follows: Selectivity interaction (KinomeScan (DiscoverX)) EUB0000229b IGF1R. The following applies: at 10 µM.
Experiment [10] has as its target T1, Mitogen-activated protein kinase kinase kinase 13 (Homo sapiens). Kind of experiment: Selectivity interaction (KinomeScan (DiscoverX)) EUB0001619a MAP3K13. The following applies: at 1 µM.
Experiment [11] deals with Tyrosine-protein kinase JAK1 (Homo sapiens, UniProt P23458). Kind of experiment: Selectivity interaction (Kinase panel (KiNativ target engagement assay in Jurkat cells)) EUB0001635a JAK1. The following applies: Selectivity number of off-targets 0.0, Selectivity number of targets 233.0, Source Knowledge https://www.sciencedirect.com/science/article/pii/S2451945619300674?via%3Dihub, at 1 µM. The class given is cell-based.
Sequence of Tyrosine-protein kinase JAK1 (P23458 whole entry): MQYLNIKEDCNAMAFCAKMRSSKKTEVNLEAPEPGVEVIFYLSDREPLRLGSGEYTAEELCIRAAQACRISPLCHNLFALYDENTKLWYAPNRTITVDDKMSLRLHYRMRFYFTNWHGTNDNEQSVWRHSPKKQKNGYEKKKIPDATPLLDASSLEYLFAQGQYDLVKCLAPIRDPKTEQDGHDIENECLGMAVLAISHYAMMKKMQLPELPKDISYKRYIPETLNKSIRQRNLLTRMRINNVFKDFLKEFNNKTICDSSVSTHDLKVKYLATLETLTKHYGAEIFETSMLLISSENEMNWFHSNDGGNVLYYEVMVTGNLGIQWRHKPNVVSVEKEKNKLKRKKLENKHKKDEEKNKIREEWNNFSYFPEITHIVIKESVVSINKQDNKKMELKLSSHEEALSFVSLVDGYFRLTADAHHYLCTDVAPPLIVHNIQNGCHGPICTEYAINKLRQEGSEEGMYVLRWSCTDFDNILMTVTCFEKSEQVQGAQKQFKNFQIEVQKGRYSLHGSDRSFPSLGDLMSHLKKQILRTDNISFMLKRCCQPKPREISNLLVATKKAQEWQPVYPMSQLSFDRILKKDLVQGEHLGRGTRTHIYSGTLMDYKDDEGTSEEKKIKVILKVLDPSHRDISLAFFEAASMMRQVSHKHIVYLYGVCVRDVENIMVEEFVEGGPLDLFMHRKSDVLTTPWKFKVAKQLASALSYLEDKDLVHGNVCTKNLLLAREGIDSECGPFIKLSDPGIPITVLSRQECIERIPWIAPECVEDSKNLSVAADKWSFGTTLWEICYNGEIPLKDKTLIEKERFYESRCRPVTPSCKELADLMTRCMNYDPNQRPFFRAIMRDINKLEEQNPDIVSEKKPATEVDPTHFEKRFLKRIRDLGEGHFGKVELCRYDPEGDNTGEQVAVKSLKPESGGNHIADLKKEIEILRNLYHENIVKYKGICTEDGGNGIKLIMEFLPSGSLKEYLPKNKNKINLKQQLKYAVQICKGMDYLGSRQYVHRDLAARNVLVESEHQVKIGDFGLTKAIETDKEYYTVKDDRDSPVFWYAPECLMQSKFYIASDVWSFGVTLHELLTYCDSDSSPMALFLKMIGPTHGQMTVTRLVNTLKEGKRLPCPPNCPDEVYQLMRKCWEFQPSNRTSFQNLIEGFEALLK

Data on eleven compounds can be found in ChEMBL document CHEMBL5465560, “Selectivity Literature for EUbOPEN Chemogenomic Library” (2024).

Structures are written as SMILES.

Sequence of Insulin-like growth factor 1 receptor (P08069 31-736 limits assumed): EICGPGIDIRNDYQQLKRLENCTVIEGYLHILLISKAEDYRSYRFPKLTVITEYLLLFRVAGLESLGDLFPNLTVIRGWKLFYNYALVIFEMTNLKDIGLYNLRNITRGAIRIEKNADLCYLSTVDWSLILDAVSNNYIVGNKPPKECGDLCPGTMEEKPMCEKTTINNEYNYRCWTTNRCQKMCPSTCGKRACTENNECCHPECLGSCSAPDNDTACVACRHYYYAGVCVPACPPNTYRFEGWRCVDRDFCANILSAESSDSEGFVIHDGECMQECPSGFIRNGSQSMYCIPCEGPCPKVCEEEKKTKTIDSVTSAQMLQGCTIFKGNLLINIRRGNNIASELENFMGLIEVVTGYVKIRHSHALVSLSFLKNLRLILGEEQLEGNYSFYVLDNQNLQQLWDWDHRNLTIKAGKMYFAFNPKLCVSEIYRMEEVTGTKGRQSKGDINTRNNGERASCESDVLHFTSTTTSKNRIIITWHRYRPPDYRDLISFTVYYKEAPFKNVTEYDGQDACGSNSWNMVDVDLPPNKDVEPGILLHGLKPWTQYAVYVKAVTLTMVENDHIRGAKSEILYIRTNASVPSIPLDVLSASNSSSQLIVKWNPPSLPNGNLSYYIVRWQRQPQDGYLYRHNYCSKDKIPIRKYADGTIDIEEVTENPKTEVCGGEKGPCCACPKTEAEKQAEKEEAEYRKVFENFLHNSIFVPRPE
Sequence of Insulin-like growth factor 1 receptor (P08069 741-1367 limits assumed): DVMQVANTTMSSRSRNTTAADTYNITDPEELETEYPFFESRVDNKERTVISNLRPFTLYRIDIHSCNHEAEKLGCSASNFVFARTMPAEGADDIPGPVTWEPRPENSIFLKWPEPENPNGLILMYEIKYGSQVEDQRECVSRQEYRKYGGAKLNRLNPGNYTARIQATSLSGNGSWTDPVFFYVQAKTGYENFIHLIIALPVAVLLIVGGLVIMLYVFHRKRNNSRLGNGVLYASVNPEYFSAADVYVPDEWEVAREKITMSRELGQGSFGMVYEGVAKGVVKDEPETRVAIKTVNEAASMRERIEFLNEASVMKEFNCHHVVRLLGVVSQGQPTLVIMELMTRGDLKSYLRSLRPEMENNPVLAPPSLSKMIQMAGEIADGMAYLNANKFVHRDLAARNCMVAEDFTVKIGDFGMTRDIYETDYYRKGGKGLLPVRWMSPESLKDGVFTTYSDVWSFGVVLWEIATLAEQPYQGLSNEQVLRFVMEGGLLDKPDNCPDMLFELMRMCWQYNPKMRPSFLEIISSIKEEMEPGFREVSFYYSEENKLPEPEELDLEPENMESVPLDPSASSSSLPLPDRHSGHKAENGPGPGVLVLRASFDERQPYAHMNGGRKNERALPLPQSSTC
Sequence of Mitogen-activated protein kinase kinase kinase kinase 4 (O95819 2-1239 limits assumed): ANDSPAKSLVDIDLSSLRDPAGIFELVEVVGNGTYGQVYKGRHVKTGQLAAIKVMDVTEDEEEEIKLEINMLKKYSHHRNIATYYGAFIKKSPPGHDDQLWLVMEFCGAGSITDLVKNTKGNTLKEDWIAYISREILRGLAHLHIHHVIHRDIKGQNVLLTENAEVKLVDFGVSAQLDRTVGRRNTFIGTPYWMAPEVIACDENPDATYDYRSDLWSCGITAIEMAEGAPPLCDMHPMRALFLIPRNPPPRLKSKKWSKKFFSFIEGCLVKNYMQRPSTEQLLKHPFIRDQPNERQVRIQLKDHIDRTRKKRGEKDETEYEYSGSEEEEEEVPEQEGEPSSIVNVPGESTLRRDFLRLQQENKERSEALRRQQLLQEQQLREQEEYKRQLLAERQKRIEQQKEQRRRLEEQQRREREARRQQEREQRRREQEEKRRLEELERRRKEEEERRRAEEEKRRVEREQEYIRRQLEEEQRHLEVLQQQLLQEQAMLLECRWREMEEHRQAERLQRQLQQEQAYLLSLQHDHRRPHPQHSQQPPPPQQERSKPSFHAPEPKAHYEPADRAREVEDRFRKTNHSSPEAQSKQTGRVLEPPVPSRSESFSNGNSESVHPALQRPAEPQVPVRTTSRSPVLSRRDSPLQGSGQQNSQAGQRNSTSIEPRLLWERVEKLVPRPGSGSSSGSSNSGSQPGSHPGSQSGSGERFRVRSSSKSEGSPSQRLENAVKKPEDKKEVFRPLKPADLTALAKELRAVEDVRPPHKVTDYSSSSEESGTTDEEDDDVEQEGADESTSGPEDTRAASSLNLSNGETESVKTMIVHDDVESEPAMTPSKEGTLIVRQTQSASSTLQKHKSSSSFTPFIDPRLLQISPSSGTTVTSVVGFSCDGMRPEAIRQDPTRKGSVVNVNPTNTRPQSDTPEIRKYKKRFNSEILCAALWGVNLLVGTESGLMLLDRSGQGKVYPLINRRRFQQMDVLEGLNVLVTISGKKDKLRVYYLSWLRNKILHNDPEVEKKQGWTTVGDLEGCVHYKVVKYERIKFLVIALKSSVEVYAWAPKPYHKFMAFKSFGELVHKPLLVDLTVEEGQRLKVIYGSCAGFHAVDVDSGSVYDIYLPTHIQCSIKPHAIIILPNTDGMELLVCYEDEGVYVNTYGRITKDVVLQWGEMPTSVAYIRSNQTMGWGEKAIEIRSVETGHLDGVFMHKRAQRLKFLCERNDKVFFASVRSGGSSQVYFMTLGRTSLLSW

Take `CN(C)C/C=C/C(=O)Nc1ccc(C(=O)N2CCCC(Nc3ncc(Cl)c(-c4c[nH]c5ccccc45)n3)C2)cc1` (configuration not stated): the % of control in experiment [1] is 95%.
With `CC[C@@H](Nc1c(C#N)c(-c2ccc(-c3cccc(C)c3F)cc2)nc2cnccc12)C(=O)O` [BAY-091], in [2], the % of inhibition is 62%.
Regarding `Cc1cc(F)c(C(=O)Nc2cccc(-c3nncn3C(C)C)n2)cc1-n1cnc(C2CC2)c1`, the % of control in experiment [3] is 100%.
`C=CC(=O)Nc1cc(-n2c(=O)ccc3cnc4ccc(-c5ccc(NS(C)(=O)=O)cc5)cc4c32)ccc1C`: the % of control was 100% in experiment [4] (at 1 µM) and 69% in experiment [4] (at 10 µM).
In turn, `O=C(NOC[C@H](O)CO)c1ccc(F)c(F)c1Nc1ccc(I)cc1F` came in with a % of control in [5] of 67%.
`CNCCN1CCC(c2cc(CN(C)C(=O)c3cccc(Oc4ccccc4)c3)ccn2)CC1`: in experiment [6], the % activity is over 90%.
For the compound `CNC(=O)Nc1ccc(-c2nc(N3CC4CCC(C3)O4)c3cnn(C4CCC5(CC4)OCCO5)c3n2)cc1`, the % of inhibition in experiment [7] amounted to 13%.
The compound `CC[C@@H]1[C@H](F)C(=O)N[C@@H]1COc1nccc2cc(C(N)=O)c(OC)cc12` [ZIMLOVISERTIB] came in with a % of inhibition in [8] of 16.8%.
In turn, `COc1cc(N(C)c2ccnc3ccc(C(F)(F)F)cc23)cc(OC)c1OC` displayed a % binding in experiment [9] of 93%.
In the case of `N#Cc1cccc(-c2c[nH]c3ncnc(N4CCOCC4)c23)c1`, the % of control in [10] is 62%.
`C=CC(=O)Nc1ccc(C(=O)Nc2[nH]nc3c2CN(C(=O)N[C@H](CN(C)C)c2ccccc2)C3(C)C)cc1` had a % of engagement in [11] of 7.9%.
